From paper PMC9323132, “Characterization of Two Dehydrogenases from Gluconobacter oxydans Involved in the Transformation of Patulin to Ascladiol” (Toxins, 2022) come the findings set out here.

SMILES strings stand for the structures.

One assay concerns the target T1, GOX1462 (Gluconobacter oxydans, UniProt Q5FQY5).
T1 construct: full-length in pET28a, whole E. coli LOBSTR-BL21 (DE3) cells; not purified (aggregated); native N-terminus by primer MQYRQLG
The assay is described as follows: HPLC of E-ascladiol formation by recombinant E. coli cells. The following applies: 10 µg/mL patulin; 500 µM NADPH; 20 mM MES pH 5; 30 °C; 24 h. The format is cell-based, Escherichia coli.

Another assay concerns the target T2, GOX1899 (Gluconobacter oxydans, UniProt Q5FPQ9).
T2 construct: full-length, N-terminal His-tag (pET28a), E. coli LOBSTR-BL21 (DE3), Ni-NTA; about 29 kDa; native N-terminus by primer MTTDNI
The assay is described as follows: NADPH oxidation at […] nm, Michaelis-Menten fit. The format is biochemical. The following applies: read-out: apparent KM; 250 µM NADPH; pH 6.0 (0.1 M Tris, 0.05 M MES, 0.05 M acetic acid); 25 °C.

The target of another assay is T3, GOX0716 (Gluconobacter oxydans, UniProt Q5FT03).
T3 construct: full-length in pET28a, whole E. coli LOBSTR-BL21 (DE3) cells; not purified; native N-terminus by primer MADHSI
T3 sequence (Q5FT03 entry or part of it): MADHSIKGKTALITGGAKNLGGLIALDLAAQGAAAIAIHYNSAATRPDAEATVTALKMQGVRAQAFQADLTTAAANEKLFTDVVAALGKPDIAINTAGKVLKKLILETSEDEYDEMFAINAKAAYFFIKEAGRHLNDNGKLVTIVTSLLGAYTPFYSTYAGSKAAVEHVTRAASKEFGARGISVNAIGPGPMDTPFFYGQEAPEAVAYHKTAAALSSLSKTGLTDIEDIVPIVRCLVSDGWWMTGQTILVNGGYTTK
The assay is described as follows: HPLC of E-ascladiol formation by recombinant E. coli cells. To be noted: 10 µg/mL patulin; 500 µM NADPH; 20 mM MES pH 5; 30 °C; 24 h. Format: cell-based, recombinant Escherichia coli.

In the next assay the target is T4, GOX0525 (Gluconobacter oxydans, UniProt Q5FTJ3).
T4 construct: full-length, N-terminal His-tag (pET28a), E. coli LOBSTR-BL21 (DE3), Ni-NTA; about 29 kDa; native N-terminus by primer MTHRVAL
T4 sequence (Q5FTJ3 entry or part of it): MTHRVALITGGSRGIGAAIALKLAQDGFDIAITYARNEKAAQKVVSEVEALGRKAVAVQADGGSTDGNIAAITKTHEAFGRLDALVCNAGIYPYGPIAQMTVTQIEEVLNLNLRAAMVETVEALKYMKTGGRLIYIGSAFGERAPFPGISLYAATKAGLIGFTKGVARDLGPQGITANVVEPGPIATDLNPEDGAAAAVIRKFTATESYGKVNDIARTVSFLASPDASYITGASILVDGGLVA
The assay is described as follows: NADPH oxidation at […] nm, Michaelis-Menten fit. Format: biochemical. To be noted: read-out: apparent KM; 250 µM NADPH; pH 6.0 (0.1 M Tris, 0.05 M MES, 0.05 M acetic acid); 25 °C.

T1 sequence (Q5FQY5 entry or part of it): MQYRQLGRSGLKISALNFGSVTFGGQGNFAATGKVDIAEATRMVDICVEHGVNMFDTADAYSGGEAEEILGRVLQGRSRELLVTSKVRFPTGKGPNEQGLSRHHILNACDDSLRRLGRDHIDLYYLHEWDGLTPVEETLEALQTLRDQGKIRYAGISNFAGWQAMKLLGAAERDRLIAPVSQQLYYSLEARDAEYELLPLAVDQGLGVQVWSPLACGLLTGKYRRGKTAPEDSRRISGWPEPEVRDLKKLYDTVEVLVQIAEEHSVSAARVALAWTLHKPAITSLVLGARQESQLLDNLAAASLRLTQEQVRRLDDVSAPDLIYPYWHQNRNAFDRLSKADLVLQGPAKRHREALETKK
T2 sequence (Q5FPQ9 entry or part of it): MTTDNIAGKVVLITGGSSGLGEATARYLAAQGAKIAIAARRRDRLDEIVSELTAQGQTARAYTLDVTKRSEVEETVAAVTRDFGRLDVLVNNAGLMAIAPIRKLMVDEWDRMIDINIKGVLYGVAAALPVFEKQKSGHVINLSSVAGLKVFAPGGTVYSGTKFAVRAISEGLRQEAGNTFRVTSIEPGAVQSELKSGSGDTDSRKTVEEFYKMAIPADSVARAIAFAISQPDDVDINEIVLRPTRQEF

For the molecule `O=C1C=C2C(=CCOC2O)O1` (stereo not shown) [patulin, 4-hydroxy-4H-furo [3,2-c]pyran-2(6H)-one], the “HPLC of E-ascladiol formation by recombinant E. coli cells” value at GOX1462 was “capable of producing E-ascladiol were those containing GOX0525, GOX1899, GOX1462 and GOX0716”; on GOX0716, “capable of producing E-ascladiol were those containing GOX0525, GOX1899, GOX1462 and GOX0716”. For the same molecule, the Michaelis constant (Km) (commonly the concentration of substrate that gives half-maximal velocity) worked out at 7.26 ± 0.54 mM on GOX1899 and 8.64 ± 0.89 mM at GOX0525.
